ChEMBL document CHEMBL3880386, “Combination comprising the MEK inhibitor N-{3-[3-cyclopropyl-5-(2-fluoro-4-iodo- phenylamino)-6,8-dimethyl-2,4,7-trioxo-3,4,6,7-tetrahydro-2H-pyrido[4,3-d]pyrimidin-1-yl]phenyl}acetamide and the Akt inhibitor N-{(1S)-2-amino-1-[(3-fluorophenyl)methyl]ethyl}-5-chloro-4-(4-chloro-1- …” (2014)

Tests used:
[1] = Growth inhibition of human MV522 cells at 1:10 molar ratio of compound in presence of N-{(1S)-2-amino-1-[(3-fluorophenyl)methyl]ethyl}-5-chloro-4-(4-chloro-1-methyl-1H-pyrazol-5-yl)-2-thiophenecar- boxamide incubated for 72 hrs by Cell-titer-Glo reagent based assay; type: functional; details: MV522, 72 h
[2] = Growth inhibition of human SW837 cells at 1:10 molar ratio of compound in presence of N-{(1S)-2-amino-1-[(3-fluorophenyl)methyl]ethyl}-5-chloro-4-(4-chloro-1-methyl-1H-pyrazol-5-yl)-2-thiophenecar- boxamide incubated for 72 hrs by Cell-titer-Glo reagent based assay; type: functional; details: SW837, 72 h
[3] = Growth inhibition of human COLO205 cells at 1:10 molar ratio of compound in presence of N-{(1S)-2-amino-1-[(3-fluorophenyl)methyl]ethyl}-5-chloro-4-(4-chloro-1-methyl-1H-pyrazol-5-yl)-2-thiophenecar- boxamide incubated for 72 hrs by Cell-titer-Glo reagent based assay; type: functional; details: COLO 205, 72 h
[4] = Growth inhibition of human HT-29 cells at 1:10 molar ratio of compound in presence of N-{(1S)-2-amino-1-[(3-fluorophenyl)methyl]ethyl}-5-chloro-4-(4-chloro-1-methyl-1H-pyrazol-5-yl)-2-thiophenecar- boxamide incubated for 72 hrs by Cell-titer-Glo reagent based assay; type: functional; details: HT-29, 72 h
[5] = Growth inhibition of human HOP62 cells at 1:10 molar ratio of compound in presence of N-{(1S)-2-amino-1-[(3-fluorophenyl)methyl]ethyl}-5-chloro-4-(4-chloro-1-methyl-1H-pyrazol-5-yl)-2-thiophenecar- boxamide incubated for 72 hrs by Cell-titer-Glo reagent based assay; type: functional; details: HOP-62, 72 h
[6] = Growth inhibition of human T84 cells at 1:10 molar ratio of compound in presence of N-{(1S)-2-amino-1-[(3-fluorophenyl)methyl]ethyl}-5-chloro-4-(4-chloro-1-methyl-1H-pyrazol-5-yl)-2-thiophenecar- boxamide incubated for 72 hrs by Cell-titer-Glo reagent based assay; type: functional; details: T84, 72 h
[7] = Growth inhibition of human SW1463 cells at 1:10 molar ratio of compound in presence of N-{(1S)-2-amino-1-[(3-fluorophenyl)methyl]ethyl}-5-chloro-4-(4-chloro-1-methyl-1H-pyrazol-5-yl)-2-thiophenecar- boxamide incubated for 72 hrs by Cell-titer-Glo reagent based assay; type: functional; details: SW1463, 72 h
[8] = Growth inhibition of human SW900 cells at 1:10 molar ratio of compound in presence of N-{(1S)-2-amino-1-[(3-fluorophenyl)methyl]ethyl}-5-chloro-4-(4-chloro-1-methyl-1H-pyrazol-5-yl)-2-thiophenecar- boxamide incubated for 72 hrs by Cell-titer-Glo reagent based assay; type: functional; details: SW900, 72 h
[9] = Growth inhibition of human HCC827 cells at 1:10 molar ratio of compound in presence of N-{(1S)-2-amino-1-[(3-fluorophenyl)methyl]ethyl}-5-chloro-4-(4-chloro-1-methyl-1H-pyrazol-5-yl)-2-thiophenecar- boxamide incubated for 72 hrs by Cell-titer-Glo reagent based assay; type: functional; details: HCC827, 72 h
[10] = Growth inhibition of human EFM19 cells at 1:10 molar ratio of compound in presence of N-{(1S)-2-amino-1-[(3-fluorophenyl)methyl]ethyl}-5-chloro-4-(4-chloro-1-methyl-1H-pyrazol-5-yl)-2-thiophenecar- boxamide incubated for 72 hrs by Cell-titer-Glo reagent based assay; type: functional; details: EFM-19, 72 h
[11] = Growth inhibition of human NCI-H727 cells assessed combination index at 1:10 molar ratio of compound in presence of N-{(1S)-2-amino-1-[(3-fluorophenyl)methyl]ethyl}-5-chloro-4-(4-chloro-1-methyl-1H-pyrazol-5-yl)-2-thiophenecar- boxamide incubated for 72 hrs by Cell-titer-Glo reagent based assay; type: functional
[12] = Growth inhibition of human NCI-H1155 cells at 1:10 molar ratio of compound in presence of N-{(1S)-2-amino-1-[(3-fluorophenyl)methyl]ethyl}-5-chloro-4-(4-chloro-1-methyl-1H-pyrazol-5-yl)-2-thiophenecar- boxamide incubated for 72 hrs by Cell-titer-Glo reagent based assay; type: functional; details: NCI-H1155, 72 h
[13] = Growth inhibition of human NCI-H1355 cells assessed combination index at 1:10 molar ratio of compound in presence of N-{(1S)-2-amino-1-[(3-fluorophenyl)methyl]ethyl}-5-chloro-4-(4-chloro-1-methyl-1H-pyrazol-5-yl)-2-thiophenecar- boxamide incubated for 72 hrs by Cell-titer-Glo reagent based assay; type: functional
[14] = Growth inhibition of human LS1034 cells assessed combination index at 1:10 molar ratio of compound in presence of N-{(1S)-2-amino-1-[(3-fluorophenyl)methyl]ethyl}-5-chloro-4-(4-chloro-1-methyl-1H-pyrazol-5-yl)-2-thiophenecar- boxamide incubated for 72 hrs by Cell-titer-Glo reagent based assay; type: functional, LS-1034
[15] = (§1) Growth inhibition of human LS1034 cells assessed combination index at 1:10 molar ratio of compound in presence of N-{3-[3-cyclopropyl-5-(2-fluoro-4-iodo-phenylamino)-6,8-dimethyl- 2,4,7-trioxo-3,4,6,7-tetrahydro-2H-pyrido[4,3-d]pyrimidin-1-yl]phenyl}acetamide incubated for 72 hrs by Cell-titer-Glo reagent based assay; type: functional, LS-1034
[16] = Growth inhibition of human NCI-H1355 cells at 1:10 molar ratio of compound in presence of N-{3-[3-cyclopropyl-5-(2-fluoro-4-iodo-phenylamino)-6,8-dimethyl- 2,4,7-trioxo-3,4,6,7-tetrahydro-2H-pyrido[4,3-d]pyrimidin-1-yl]phenyl}acetamide incubated for 72 hrs by Cell-titer-Glo reagent based assay; type: functional; details: NCI-H1355, 72 h
[17] = Growth inhibition of human Calu3 cells at 1:10 molar ratio of compound in presence of N-{3-[3-cyclopropyl-5-(2-fluoro-4-iodo-phenylamino)-6,8-dimethyl- 2,4,7-trioxo-3,4,6,7-tetrahydro-2H-pyrido[4,3-d]pyrimidin-1-yl]phenyl}acetamide incubated for 72 hrs by Cell-titer-Glo reagent based assay; type: functional; details: Calu-3, 72 h
[18] = Growth inhibition of human HT-29 cells at 1:10 molar ratio of compound in presence of N-{3-[3-cyclopropyl-5-(2-fluoro-4-iodo-phenylamino)-6,8-dimethyl- 2,4,7-trioxo-3,4,6,7-tetrahydro-2H-pyrido[4,3-d]pyrimidin-1-yl]phenyl}acetamide incubated for 72 hrs by Cell-titer-Glo reagent based assay; type: functional; details: HT-29, 72 h
[19] = Growth inhibition of human COR-L23 cells at 1:10 molar ratio of compound in presence of N-{3-[3-cyclopropyl-5-(2-fluoro-4-iodo-phenylamino)-6,8-dimethyl- 2,4,7-trioxo-3,4,6,7-tetrahydro-2H-pyrido[4,3-d]pyrimidin-1-yl]phenyl}acetamide incubated for 72 hrs by Cell-titer-Glo reagent based assay; type: functional; details: COR-L23, 72 h
[20] = as §1, with “Calu6” for “LS1034”; type: functional, Calu-6
[21] = Growth inhibition of human NCI-H1155 cells at 1:10 molar ratio of compound in presence of N-{3-[3-cyclopropyl-5-(2-fluoro-4-iodo-phenylamino)-6,8-dimethyl- 2,4,7-trioxo-3,4,6,7-tetrahydro-2H-pyrido[4,3-d]pyrimidin-1-yl]phenyl}acetamide incubated for 72 hrs by Cell-titer-Glo reagent based assay; type: functional; details: NCI-H1155, 72 h

CC(=O)Nc1cccc(-n2c(=O)n(C3CC3)c(=O)c3c(Nc4ccc(I)cc4F)n(C)c(=O)c(C)c32)c1 [TRAMETINIB]
IC50 [1]: 1 nM | IC50 [2]: 25 nM | IC50 [3]: 1 nM | IC50 [4]: 1 nM | IC50 [5]: 50 nM | IC50 [6]: 30 nM | IC50 [7]: 4 nM | IC50 [8]: 72 nM | IC50 [9]: 40 nM | IC50 [10]: 30 nM | CI [11]: 1.09 | IC50 [12]: 10 nM | CI [13]: 0.57 | CI [14]: 0.84

Cn1ncc(Cl)c1-c1cc(C(=O)N[C@H](CN)Cc2cccc(F)c2)sc1Cl [AFURESERTIB]
CI [15]: 0.84 | IC50 [16]: 268 nM | IC50 [17]: 392 nM | IC50 [18]: 15 nM | IC50 [19]: 368 nM | CI [20]: 0.79 | IC50 [21]: 101 nM
